# Experimental data published in patent US11851418B2, “Heteroaromatic carboxamide derivatives as plasma kallikrein inhibitors” (Boehringer Ingelheim International GmbH, priority 2020, dated 2023).
# Tests used:
# Format in all cases: biochemical
# Human PKK = biological target: T1, Human PKK (Homo sapiens, UniProt P03952); assay: Inhibition of PKK using an endpoint assay; settings: fluorogenic substrate H-Pro-Phe-Arg-AMC, 1 h at room temperature
# T1 construct: purchased Enzyme Research Laboratories
# Method: (§1) The ability of compounds of formula (I) to inhibit plasma kallikrein (PKK), Factor XIIa (FXIIa), Factor XIa (FXIa), Factor Xa (FXa), Factor IIa (alpha-thrombin; FIIa), plasmin, trypsin, tissue kallikrein 1 (TK1), Factor Vila (FVIIa), or FVIIa complexed with Tissue Factor, phospholipids and CaCl2 (FVIIa/TF/PL/CaCl2) is determined using the following biochemical assays in assay buffer (100 mM Tris, 150 mM NaCL, adjusted to a pH of 7.8 with HCl, and containing 0.1% (w/v) BSA and 0.05% (v/v) Tween20) in the presence of 1% (v/v) DMSO:
# Subsequently, PPACK 11 (Calbiochem) is added as a stop solution to achieve a final concentration of 1 μM and fluorescence is measured using an Envision Reader (PerkinElmer) with the wavelength excitation setting of 355 nm and the wavelength emission setting of 460 nm.
# [1] = biological target: T2, PKK in kaolin activated human platelet poor plasma (Homo sapiens, UniProt P03952); assay: Inhibition of PKK in kaolin activated human PPP; settings: kaolin (25, 75, 250, 750 μg/mL) activated human PPP, global fit
# T2 construct: Platelet poor plasma (PPP) obtained from human wholeblood; from tissue
# Method: Platelet poor plasma (PPP) obtained from human wholeblood, anticoagulated with Na-Citrate, is incubated with various concentrations of the test compound together with either 25, 75, 250, or 750 μg/mL kaolin in assay buffer for 20 min at 37° C. such that for each kaolin dose used a concentration response is obtained for the test compound.
# human TK1 = biological target: T3, human TK1 (Homo sapiens, UniProt P06870); assay: Inhibition of TK1 (Ki); settings: activated human TK1, substrate H-Pro-Phe-Arg-AMC, 24° C.; Ki from IC50 corrected for KM
# T3 construct: purchased R&D Systems
# Method: as §1
# Prior to the assay, human TK1 (R&D Systems) is activated by incubation with human trypsin (Calbiochem) in a 1:10,000 ratio for 15 min at 37° C. For assaying TK1 inhibitory activity, activated TK1 (31.25 nM or 1 U/mL) is incubated at 24° C. with 0.1 mM fluorogenic substrate H-Pro-Phe-Arg-AMC (I1295 from Bachem) and various concentrations of the test compound in assay buffer. Measurements are performed in a kinetic interval every 2nd minute for 16 min using a Spectramax M5 (Molecular Devices) with the following settings of the wavelength excitation of 350 nm and wavelength emission of 450 nm.
# The pIC50 values are then fitted using a four-parametric fitting procedure using GraphPad Prism (version 6; GraphPad Software, Inc.). […]
# T2 sequence (P03952 391-638 limits assumed): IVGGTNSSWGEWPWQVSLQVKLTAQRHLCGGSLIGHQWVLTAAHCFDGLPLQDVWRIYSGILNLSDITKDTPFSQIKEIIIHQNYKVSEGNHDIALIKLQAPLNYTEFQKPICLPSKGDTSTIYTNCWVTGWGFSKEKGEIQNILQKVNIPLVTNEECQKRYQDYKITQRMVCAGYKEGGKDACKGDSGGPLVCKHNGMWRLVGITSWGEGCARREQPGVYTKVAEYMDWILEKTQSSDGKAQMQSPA
# T2 sequence (P03952 20-390 partner limits assumed): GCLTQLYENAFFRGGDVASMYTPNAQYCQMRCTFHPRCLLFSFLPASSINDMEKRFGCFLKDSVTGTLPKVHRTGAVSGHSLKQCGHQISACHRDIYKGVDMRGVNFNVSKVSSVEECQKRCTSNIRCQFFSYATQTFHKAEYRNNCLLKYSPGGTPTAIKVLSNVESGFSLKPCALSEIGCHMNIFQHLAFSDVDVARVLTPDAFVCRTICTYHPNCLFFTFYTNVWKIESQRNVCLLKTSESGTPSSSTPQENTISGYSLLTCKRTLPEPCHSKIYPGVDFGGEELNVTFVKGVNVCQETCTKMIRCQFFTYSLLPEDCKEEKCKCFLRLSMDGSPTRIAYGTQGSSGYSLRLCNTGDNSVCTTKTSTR
# T1 sequence (P03952 391-638 limits assumed): as the sequence (P03952 391-638 limits assumed) above
# T1 sequence (P03952 20-390 partner limits assumed): as the sequence (P03952 20-390 partner limits assumed) above
# T3 sequence (P06870 25-262): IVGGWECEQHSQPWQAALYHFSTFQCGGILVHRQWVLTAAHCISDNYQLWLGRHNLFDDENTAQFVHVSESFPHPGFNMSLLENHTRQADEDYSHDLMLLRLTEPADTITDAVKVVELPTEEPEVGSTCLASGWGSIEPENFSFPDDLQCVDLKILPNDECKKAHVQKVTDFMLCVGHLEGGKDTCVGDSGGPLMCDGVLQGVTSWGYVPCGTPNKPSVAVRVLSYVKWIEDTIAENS
SMILES,IC50 (Human PKK) [nM],IC90 [1] [nM],Ki (human TK1) [nM]
"Cc1[nH]nc2c1CC[C@H]2NC(=O)c1cnn(Cc2cnc(N3CC4CC4C3)nc2C(F)F)c1 (stereo partly drawn) [Example 2, 1-[(2-{3-Azabicyclo[3.1.0]hexan-3-yl}-4-(difluoromethyl)-pyrimidin-5-yl)methyl]-N-[(6R)-3-methyl-2H,4H,5H,6H-cyclopenta[c]pyrazol-6-yl]-1H-pyrazole-4-carboxamide]",1.8,499,
"Cc1[nH]nc2c1CC[C@H]2NC(=O)c1cn(Cc2cnc(N3CC4CC4C3)nc2C(F)F)cn1 (stereo partly drawn) [Example 8, 1-[(2-{3-Azabicyclo[3.1.0]hexan-3-yl}-4-(difluoromethyl)-pyrimidin-5-yl)methyl]-N-[(6R)-3-methyl-2H,4H,5H,6H-cyclopenta[c]pyrazol-6-yl]-1H-imidazole-4-carboxamide]",2.1,305,
"Cc1[nH]nc2c1CC[C@H]2NC(=O)c1cn(Cc2cnc(N3CC4CC4C3)cc2C(F)(F)F)cn1 (stereo partly drawn) [Example 9, 1-[(6-{3-Azabicyclo[3.1.0]hexan-3-yl}-4-(trifluoromethyl)-pyridin-3-yl)methyl]-N-[(6R)-3-methyl-2H,4H,5H,6H-cyclopenta[c]pyrazol-6-yl]-1H-imidazole-4-carboxamide]",1.8,539,> 10000
"Cc1[nH]nc2c1CC[C@H]2NC(=O)c1cnn(Cc2ccc(N3CC4C(C3)C4(F)F)nc2C(F)F)c1 (stereo partly drawn) [Example 10, 1-[(6-{6,6-Difluoro-3-azabicyclo[3.1.0]hexan-3-yl}-2-(difluoromethyl)pyridin-3-yl)methyl]-N-[(6R)-3-methyl-2H,4H,5H,6H-cyclopenta-[c]pyrazol-6-yl]-1H-pyrazole-4-carboxamide]",,242,
"Cc1[nH]nc2c1CC[C@H]2NC(=O)c1cnn(Cc2cnc(N3CC4CC4C3)cc2C(F)(F)F)c1 (stereo partly drawn) [Example 12, 1-[(6-{3-Azabicyclo[3.1.0]hexan-3-yl}-4-(trifluoromethyl)-pyridin-3-yl)methyl]-N-[(6R)-3-methyl-2H,4H,5H,6H-cyclopenta[c]pyrazol-6-yl]-1H-pyrazole-4-carboxamide]",2.6,,
"Cc1[nH]nc2c1CC[C@H]2NC(=O)c1cnn(Cc2ccc(N3CC4CC4C3)nc2C(F)(F)F)c1 (stereo partly drawn) [Example 13, 1-[(6-{3-Azabicyclo[3.1.0]hexan-3-yl}-2-(trifluoromethyl)pyridin-3-yl)methyl]-N-[(6R)-3-methyl-2H,4H,5H,6H-cyclopenta[c]pyrazol-6-yl]-1H-pyrazole-4-carboxamide]",1.9,746,> 10000

# Next, values leading:
IC50 (Human PKK) [nM],IC90 [1] [nM],Ki (human TK1) [nM],SMILES
0.8,182,,"Cc1[nH]nc2c1CC[C@H]2NC(=O)c1cnn(Cc2ccc(N3CC4(CC4)C3)nc2C(F)F)c1 [Example 1, 1-[(6-{5-Azaspiro[2.3]hexan-5-yl}-2-(difluoromethyl)pyridin-3-yl)methyl]-N-[(6R)-3-methyl-2H,4H,5H,6H-cyclopenta[c]pyrazol-6-yl]-1H-pyrazole-4-carboxamide]"
0.9,486,,"Cc1[nH]nc2c1CC[C@H]2NC(=O)c1cn(Cc2ccc(N3CC4CC4C3)nc2C(F)F)nn1 (stereo partly drawn) [Example 3, 1-[(6-{3-Azabicyclo[3.1.0]hexan-3-yl}-2-(difluoromethyl)-pyridin-3-yl)methyl]-N-[(6R)-3-methyl-2H,4H,5H,6H-cyclo-penta[c]pyrazol-6-yl]-1H-1,2,3-triazole-4-carboxamide]"
,122,,"Cc1[nH]nc2c1CC[C@H]2NC(=O)c1cn(Cc2ccc(N3CC4(CC4)C3)nc2C(F)F)nn1 [Example 4, 1-[(6-{5-Azaspiro[2.3]hexan-5-yl}-2-(difluoromethyl)pyridin-3-yl)methyl]-N-[(6R)-3-methyl-2H,4H,5H,6H-cydopenta[c]-pyrazol-6-yl]-1H-1,2,3-triazole-4-carboxamide]"
,149,,"Cc1[nH]nc2c1CC[C@H]2NC(=O)c1cn(Cc2ccc(N3CC4(CC4)C3)nc2C(F)F)cn1 [Example 5, 1-[(6-{5-Azaspiro[2.3]hexan-5-yl}-2-(difluoromethyl)-pyridin-3-yl)methyl]-N-[(6R)-3-methyl-2H,4H,5H,6H-cyclopenta[c]pyrazol-6-yl]-1H-imidazole-4-carboxamide]"
,293,,"Cc1[nH]nc2c1CC[C@H]2NC(=O)c1cn(Cc2ccc(N3CC4CC4C3)nc2C(F)F)cn1 (stereo partly drawn) [Example 6, 1-[(6-{3-Azabicyclo[3.1.0]hexan-3-yl}-2-(difluoromethyl)-pyridin-3-yl)methyl]-N-[(6R)-3-methyl-2H,4H,5H,6H-cyclopenta[c]pyrazol-6-yl]-1H-imidazole-4-carboxamide]"
,195,,"Cc1[nH]nc2c1CC[C@H]2NC(=O)c1cnn(Cc2ccc(N3CC4CC4C3)nc2C(F)F)c1 (stereo partly drawn) [Example 7, 1-[(6-{3-Azabicyclo[3.1.0]hexan-3-yl}-2-(difluoromethyl)-pyridin-3-yl)methyl]-N-[(6R)-3-methyl-2H,4H,5H,6H-cyclopenta[c]pyrazol-6-yl]-1H-pyrazole-4-carboxamide]"
,236,,"Cc1[nH]nc2c1CC[C@H]2NC(=O)c1cn(Cc2ccc(N3CC4C(C3)C4(F)F)nc2C(F)F)cn1 (stereo partly drawn) [Example 11, 1-[(6-{6,6-Difluoro-3-azabicyclo[3.1.0]hexan-3-yl}-2-(difluoromethyl)pyridin-3-yl)methyl]-N-[(6R)-3-methyl-2H,4H,5H,6H-cyclopenta-[c]pyrazol-6-yl]-1H-imidazole-4-carboxamide]"
